From US9931355B2, “Combination of compounds derived from gallic acid for the treatment of cancer” (PONTIFICLA UNIVERSIDAD JAVERIANA, priority 2012, dated 2018) come the findings set out here.

Each structure is given as a SMILES string. ≈ marks a conversion by molar mass, not a printed value.

What all share (format): cell-based
Test [1] concerns 4T1 (murine mammary cancer). Description: MTT cytotoxicity assay on 4T1 cells. As to conditions: Mus musculus, 48 hours, read-out: 50% inhibitory concentration. The method, then:
(§1) The human cell lines used were K562 (human erythroleukemia) MCF7 (human breast cancer) and A375 (human melanoma). The murine cell lines used were Mel Rel (murine melanoma) and 4T1 (murine mammary cancer). […] The cell line 4T1 was also maintained with 1 mM of sodium pyruvate (Eurobio, Toulouse, FR). For the assays on normal cells, human mononucleocytes from the venous peripheral blood of healthy donors (PBMC) were obtained, and were separated by centrifugation using a Ficoll-Hypaque density gradient (GE Healthcare Bio-Sciences AB, Bjorkgatan, Uppsala, Sweden). The cytotoxic effect of the combination of the invention on tumor cells and normal cells was evaluated by direct microscopic observation and via assays with MTT (Sigma, Saint Louis Mo., USA). […] The formazan crystals were dissolved with dimethyl sulfoxide (DMSO) and the optical density was measured at 540 nm in a Multiskan MCC/340 machine (Labsystems, Thermo Fisher Scientific, Waltham, USA). The cytotoxic effect of FA-CS was evaluated with MTT on various tumoral cell lines. The […] value on the various cell lines was calculated using the Minitab software. […]
In general terms: Tetrazolium dyes change colour on reduction, which living cells bring about.

The subject of a further test is A375 (human melanoma). Description: MTT cytotoxicity assay on A375 cells. As to conditions: A-375, 48 hours, read-out: 50% inhibitory concentration. As to the method: The human cell lines used were K562 (human erythroleukemia) MCF7 (human breast cancer) and A375 (human melanoma). The murine cell lines used were Mel Rel (murine melanoma) and 4T1 (murine mammary cancer). These cells were maintained in RPMI 1640 medium supplemented with 10% fetal calf serum, 2 mM of L-glutamine, 100 U of penicillin, 100 μg/ml of streptomycin and 0.01 M of HEPES (Eurobio, Toulouse, FR) at 37° C. with 5% CO2 under a humid atmosphere. The cell line 4T1 was also maintained with 1 mM of sodium pyruvate (Eurobio, Toulouse, FR). For the assays on normal cells, human mononucleocytes from the venous peripheral blood of healthy donors (PBMC) were obtained, and were separated by centrifugation using a Ficoll-Hypaque density gradient (GE Healthcare Bio-Sciences AB, Bjorkgatan, Uppsala, Sweden).
The cytotoxic effect of the combination of the invention on tumor cells and normal cells was evaluated by direct microscopic observation and via assays with MTT (Sigma, Saint Louis Mo., USA). […] The formazan crystals were dissolved with dimethyl sulfoxide (DMSO) and the optical density was measured at 540 nm in a Multiskan MCC/340 machine (Labsystems, Thermo Fisher Scientific, Waltham, USA).
The cytotoxic effect of FA-CS was evaluated with MTT on various tumoral cell lines. The […] value on the various cell lines was calculated using the Minitab software. […]

For test [2], the system named is K562 (human erythroleukemia). Description: MTT cytotoxicity assay on K562 cells. As to conditions: 48 hours, read-out: 50% inhibitory concentration. As to the method:
as §1

For the next test, the system named is Fibroblasts. Description: MTT cytotoxicity assay on fibroblasts. As to conditions: Fibroblast, read-out: 50% inhibitory concentration.
Test [3] concerns MCF7 (human breast cancer). The test can be described thus: MTT cytotoxicity assay on MCF7 cells. As to conditions: 48 hours, read-out: 50% inhibitory concentration. The method, then:
as §1

With `COc1cccc2c1C(=O)c1c(O)c3c(c(O)c1C2=O)C[C@@](O)(C(=O)CO)C[C@@H]3O[C@H]1C[C@H](N)[C@H](O)[C@H](C)O1` [Doxorubicin], the IC50 in test [1] stood at 0.5 ± 0.1 µg/mL; with A375 (human melanoma) it was 0.02 ± 0.1 µg/mL; in test [2], 0.2 ± 0.1 µg/mL; with Fibroblasts, 0.4 ± 0.1 µg/mL (≈ 0.736 µM).
`O=C(O)c1cc(O)c(O)c(O)c1` [Gallic acid]: the IC50 in test [1] came out at 96.2 µg/mL; in test [3], 4.07 ± 0.04 µg/mL; in test [2] it was 18.2 ± 0.1 µg/mL.
